Assay results reported in the kinase profiling compilation of Christmann-Franck et al. (2016).

Experiments:
Assay in all cases: Caliper, Mobility shift assay off-chip
MST1R (human) = MST1R (human) (UniProt Q04912)
PLK3 (human) = PLK3 (human) (UniProt Q9H4B4)
PAK6 (human) = PAK6 (human) (UniProt Q9NQU5)
PIM2 (human) = PIM2 (human) (UniProt Q9P1W9)
GSK3B (human) = GSK3B (human) (UniProt P49841)
FGR (human) = FGR (human) (UniProt P09769)
SRPK2 (human) = SRPK2 (human) (UniProt P78362)
RPS6KA6 KD1 KD2 (human) = RPS6KA6 KD1 KD2 (human) (UniProt Q9UK32)
Chain of RPS6KA6 KD1 KD2 (human) (Q9UK32 whole entry, looked up): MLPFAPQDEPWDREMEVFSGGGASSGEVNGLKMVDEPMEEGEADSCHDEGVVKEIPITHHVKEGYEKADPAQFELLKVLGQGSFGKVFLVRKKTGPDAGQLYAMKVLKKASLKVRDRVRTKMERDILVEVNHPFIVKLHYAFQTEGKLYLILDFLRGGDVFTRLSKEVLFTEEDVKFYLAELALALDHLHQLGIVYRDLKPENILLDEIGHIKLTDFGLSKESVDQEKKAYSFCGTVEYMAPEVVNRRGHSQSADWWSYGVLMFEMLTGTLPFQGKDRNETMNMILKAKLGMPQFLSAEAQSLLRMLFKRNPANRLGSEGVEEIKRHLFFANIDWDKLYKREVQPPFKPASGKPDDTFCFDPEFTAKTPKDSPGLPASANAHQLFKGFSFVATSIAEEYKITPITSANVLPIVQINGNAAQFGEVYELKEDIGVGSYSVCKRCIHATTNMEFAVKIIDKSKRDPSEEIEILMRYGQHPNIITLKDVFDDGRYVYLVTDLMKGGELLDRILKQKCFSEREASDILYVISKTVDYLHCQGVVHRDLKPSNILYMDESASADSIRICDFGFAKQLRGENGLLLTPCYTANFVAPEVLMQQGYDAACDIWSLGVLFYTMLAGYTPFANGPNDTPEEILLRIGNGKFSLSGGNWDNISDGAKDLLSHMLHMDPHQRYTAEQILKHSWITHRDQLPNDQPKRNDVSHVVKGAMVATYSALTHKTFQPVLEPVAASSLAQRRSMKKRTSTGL

CSNK1G3 (human) = CSNK1G3 (human) (UniProt Q9Y6M4)
LTK (human) = LTK (human) (UniProt P29376)
Chain of LTK (human) (P29376 whole entry, looked up): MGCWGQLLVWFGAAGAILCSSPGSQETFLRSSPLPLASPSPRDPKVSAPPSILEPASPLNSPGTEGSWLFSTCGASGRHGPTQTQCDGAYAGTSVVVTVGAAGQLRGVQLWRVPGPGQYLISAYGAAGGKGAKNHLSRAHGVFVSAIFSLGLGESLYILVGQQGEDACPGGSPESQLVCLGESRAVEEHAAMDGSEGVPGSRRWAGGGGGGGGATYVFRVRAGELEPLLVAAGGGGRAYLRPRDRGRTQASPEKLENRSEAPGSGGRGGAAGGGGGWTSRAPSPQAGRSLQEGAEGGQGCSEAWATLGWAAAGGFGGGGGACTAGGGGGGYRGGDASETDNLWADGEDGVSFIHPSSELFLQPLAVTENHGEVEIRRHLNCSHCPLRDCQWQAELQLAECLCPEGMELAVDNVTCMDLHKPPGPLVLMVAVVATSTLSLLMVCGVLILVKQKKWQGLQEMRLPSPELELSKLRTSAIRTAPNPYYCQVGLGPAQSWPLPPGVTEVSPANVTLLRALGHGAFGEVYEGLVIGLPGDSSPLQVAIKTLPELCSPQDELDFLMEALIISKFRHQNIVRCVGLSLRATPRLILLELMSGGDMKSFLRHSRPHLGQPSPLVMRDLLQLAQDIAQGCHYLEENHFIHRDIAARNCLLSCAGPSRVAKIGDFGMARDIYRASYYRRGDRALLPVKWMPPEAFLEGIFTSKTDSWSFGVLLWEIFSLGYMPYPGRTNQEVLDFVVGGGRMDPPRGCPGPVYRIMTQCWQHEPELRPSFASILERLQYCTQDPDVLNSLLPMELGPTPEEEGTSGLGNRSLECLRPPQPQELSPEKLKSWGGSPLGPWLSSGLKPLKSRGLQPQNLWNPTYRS

PRKAA2 (human) = PRKAA2 (human) (UniProt P54646)
NEK1 (human) = NEK1 (human) (UniProt Q96PY6)
HIPK3 (human) = HIPK3 (human) (UniProt Q9H422)
MAPK10 (human) = MAPK10 (human) (UniProt P53779)
FGFR3 (human) = FGFR3 (human) (UniProt P22607)
Chain of FGFR3 (human) (P22607 whole entry, looked up): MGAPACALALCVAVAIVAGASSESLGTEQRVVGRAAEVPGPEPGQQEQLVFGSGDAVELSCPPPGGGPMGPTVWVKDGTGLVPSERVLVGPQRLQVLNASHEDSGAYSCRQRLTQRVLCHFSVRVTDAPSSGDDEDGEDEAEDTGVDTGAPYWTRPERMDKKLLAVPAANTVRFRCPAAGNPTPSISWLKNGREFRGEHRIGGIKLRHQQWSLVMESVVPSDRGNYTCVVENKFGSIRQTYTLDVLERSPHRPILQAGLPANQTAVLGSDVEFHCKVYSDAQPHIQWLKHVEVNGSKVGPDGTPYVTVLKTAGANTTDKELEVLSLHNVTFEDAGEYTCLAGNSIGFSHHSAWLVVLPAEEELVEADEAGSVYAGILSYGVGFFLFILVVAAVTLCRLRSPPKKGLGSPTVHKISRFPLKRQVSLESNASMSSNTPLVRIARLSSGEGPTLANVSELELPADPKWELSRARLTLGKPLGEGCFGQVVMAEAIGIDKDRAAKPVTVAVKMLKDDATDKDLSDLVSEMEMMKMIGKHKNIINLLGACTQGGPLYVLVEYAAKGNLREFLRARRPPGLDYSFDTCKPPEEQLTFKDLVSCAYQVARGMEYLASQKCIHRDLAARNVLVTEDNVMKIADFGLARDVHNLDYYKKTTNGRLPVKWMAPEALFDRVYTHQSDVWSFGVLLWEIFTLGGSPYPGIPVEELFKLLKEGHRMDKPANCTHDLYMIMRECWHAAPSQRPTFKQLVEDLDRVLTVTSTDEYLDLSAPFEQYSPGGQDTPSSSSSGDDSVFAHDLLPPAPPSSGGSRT

STK4 (human) = STK4 (human) (UniProt Q13043)
Chain of STK4 (human) (Q13043 whole entry, looked up): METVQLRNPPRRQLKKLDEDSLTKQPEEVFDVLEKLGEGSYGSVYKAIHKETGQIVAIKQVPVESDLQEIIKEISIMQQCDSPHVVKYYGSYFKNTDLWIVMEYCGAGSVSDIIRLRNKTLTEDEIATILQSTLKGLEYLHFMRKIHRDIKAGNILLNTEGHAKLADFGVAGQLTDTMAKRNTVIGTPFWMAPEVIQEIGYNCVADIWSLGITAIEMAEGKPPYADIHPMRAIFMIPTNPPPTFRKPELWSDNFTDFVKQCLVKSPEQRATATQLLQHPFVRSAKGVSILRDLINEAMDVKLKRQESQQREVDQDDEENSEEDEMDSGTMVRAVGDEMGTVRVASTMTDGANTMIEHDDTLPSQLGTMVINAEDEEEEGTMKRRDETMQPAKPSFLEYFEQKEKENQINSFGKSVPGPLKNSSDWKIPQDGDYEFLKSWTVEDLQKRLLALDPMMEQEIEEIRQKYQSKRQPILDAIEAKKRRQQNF

EPHA6 (human) = EPHA6 (human) (UniProt Q9UF33)
CSNK1A1 (human) = CSNK1A1 (human) (UniProt P48729)
ALK EML4 (human) = ALK EML4 (human) (UniProt Q9HC35+Q9UM73)
CAMK1 (human) = CAMK1 (human) (UniProt Q14012)
PRKD1 (human) = PRKD1 (human) (UniProt Q15139)
PHKG2 (human) = PHKG2 (human) (UniProt P15735)
Chain of PHKG2 (human) (P15735 whole entry, looked up): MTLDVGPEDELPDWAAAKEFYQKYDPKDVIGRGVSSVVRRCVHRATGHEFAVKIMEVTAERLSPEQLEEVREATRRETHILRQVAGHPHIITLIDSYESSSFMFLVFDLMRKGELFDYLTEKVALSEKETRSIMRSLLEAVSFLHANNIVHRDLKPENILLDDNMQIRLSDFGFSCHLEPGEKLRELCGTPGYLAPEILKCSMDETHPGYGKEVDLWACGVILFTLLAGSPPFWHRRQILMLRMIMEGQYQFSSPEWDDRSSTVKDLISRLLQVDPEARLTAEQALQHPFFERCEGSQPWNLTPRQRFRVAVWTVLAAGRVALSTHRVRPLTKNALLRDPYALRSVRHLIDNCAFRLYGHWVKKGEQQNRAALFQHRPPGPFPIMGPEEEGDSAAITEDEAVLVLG

CIT (human) = CIT (human) (UniProt O14578)
SRPK3 (human) = SRPK3 (human) (UniProt Q9UPE1)
PHKG1 (human) = PHKG1 (human) (UniProt Q16816)
Chain of PHKG1 (human) (Q16816 whole entry, looked up): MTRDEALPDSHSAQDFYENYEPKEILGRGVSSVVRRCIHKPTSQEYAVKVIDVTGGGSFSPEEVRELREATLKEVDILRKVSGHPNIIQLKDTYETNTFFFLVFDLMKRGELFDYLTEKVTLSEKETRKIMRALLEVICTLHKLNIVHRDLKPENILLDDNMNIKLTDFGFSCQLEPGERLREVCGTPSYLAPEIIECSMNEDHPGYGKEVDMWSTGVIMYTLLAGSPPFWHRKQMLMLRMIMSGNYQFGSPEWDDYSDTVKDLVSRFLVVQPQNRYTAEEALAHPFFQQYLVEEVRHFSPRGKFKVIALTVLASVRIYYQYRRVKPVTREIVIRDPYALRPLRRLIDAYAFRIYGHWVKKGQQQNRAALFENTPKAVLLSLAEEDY

FER (human) = FER (human) (UniProt P16591)
Chain of FER (human) (P16591 whole entry, looked up): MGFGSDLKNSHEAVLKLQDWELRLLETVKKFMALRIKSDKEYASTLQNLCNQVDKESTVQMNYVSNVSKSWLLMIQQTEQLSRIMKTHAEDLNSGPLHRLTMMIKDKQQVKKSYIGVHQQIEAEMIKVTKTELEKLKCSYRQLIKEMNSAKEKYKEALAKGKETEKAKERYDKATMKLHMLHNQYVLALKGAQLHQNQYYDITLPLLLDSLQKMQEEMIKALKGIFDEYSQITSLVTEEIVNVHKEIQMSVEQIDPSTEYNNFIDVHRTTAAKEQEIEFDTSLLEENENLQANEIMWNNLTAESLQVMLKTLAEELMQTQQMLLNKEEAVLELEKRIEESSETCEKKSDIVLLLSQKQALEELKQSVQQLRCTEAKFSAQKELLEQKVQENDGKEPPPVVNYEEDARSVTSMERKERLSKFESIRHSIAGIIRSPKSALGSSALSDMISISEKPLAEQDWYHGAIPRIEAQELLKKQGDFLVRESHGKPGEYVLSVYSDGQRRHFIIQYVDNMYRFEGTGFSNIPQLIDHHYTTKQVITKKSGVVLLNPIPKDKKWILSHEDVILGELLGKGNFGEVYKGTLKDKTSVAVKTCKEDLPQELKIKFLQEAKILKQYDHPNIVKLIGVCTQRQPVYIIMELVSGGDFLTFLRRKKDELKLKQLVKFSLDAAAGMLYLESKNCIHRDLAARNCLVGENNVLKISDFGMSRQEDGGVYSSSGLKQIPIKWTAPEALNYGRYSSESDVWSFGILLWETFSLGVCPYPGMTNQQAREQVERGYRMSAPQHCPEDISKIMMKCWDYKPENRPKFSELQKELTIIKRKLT

RPS6KB2 (human) = RPS6KB2 (human) (UniProt Q9UBS0)
PGK1 (human) = PGK1 (human) (UniProt P00558)
MAP4K4 (human) = MAP4K4 (human) (UniProt O95819)
PRKD2 (human) = PRKD2 (human) (UniProt Q9BZL6)
SIK1 (human) = SIK1 (human) (UniProt P57059)
BMX (human) = BMX (human) (UniProt P51813)
NUAK2 (human) = NUAK2 (human) (UniProt Q9H093)

Chain of GSK3B (human) (P49841 whole entry, looked up): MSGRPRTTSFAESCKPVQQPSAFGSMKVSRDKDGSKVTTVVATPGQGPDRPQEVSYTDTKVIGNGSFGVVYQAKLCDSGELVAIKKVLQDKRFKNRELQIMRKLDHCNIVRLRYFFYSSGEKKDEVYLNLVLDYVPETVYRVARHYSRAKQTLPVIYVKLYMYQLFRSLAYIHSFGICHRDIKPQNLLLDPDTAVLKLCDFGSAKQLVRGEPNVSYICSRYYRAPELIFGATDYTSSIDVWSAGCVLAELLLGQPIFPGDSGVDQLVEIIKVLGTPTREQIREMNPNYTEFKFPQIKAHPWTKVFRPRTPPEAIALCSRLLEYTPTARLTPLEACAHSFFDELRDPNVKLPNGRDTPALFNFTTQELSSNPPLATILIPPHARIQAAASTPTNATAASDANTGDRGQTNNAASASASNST

CNC(=O)c1cc(Oc2ccc(NC(=O)Nc3ccc(Cl)c(C(F)(F)F)c3)cc2)ccn1
inhibition (MST1R (human); compound 0.02 µM): -4.7%
inhibition (MST1R (human); compound 0.2 µM): 5.3%
inhibition (PLK3 (human); compound 0.02 µM): 4%
inhibition (PLK3 (human); compound 0.2 µM): 5.3%
inhibition (PAK6 (human); compound 0.02 µM): -6.6%
inhibition (PAK6 (human); compound 0.2 µM): -32.1%
inhibition (PIM2 (human); compound 0.02 µM): -0.2%
inhibition (PIM2 (human); compound 0.2 µM): 1.2%
inhibition (GSK3B (human); compound 0.02 µM): -6.7%
inhibition (GSK3B (human); compound 0.2 µM): 2.9%
inhibition (FGR (human); compound 0.02 µM): 1.6%
inhibition (FGR (human); compound 0.2 µM): 14.2%
inhibition (SRPK2 (human); compound 0.02 µM): -5.7%
inhibition (SRPK2 (human); compound 0.2 µM): -6.5%
inhibition (RPS6KA6 KD1 KD2 (human); compound 0.02 µM): -2%
inhibition (RPS6KA6 KD1 KD2 (human); compound 0.2 µM): -6.2%
inhibition (CSNK1G3 (human); compound 0.02 µM): -1.4%
inhibition (CSNK1G3 (human); compound 0.2 µM): -6.9%
inhibition (LTK (human); compound 0.02 µM): -2.2%
inhibition (LTK (human); compound 0.2 µM): 7.4%
inhibition (PRKAA2 (human); compound 0.02 µM): -5.3%
inhibition (PRKAA2 (human); compound 0.2 µM): 10.4%
inhibition (NEK1 (human); compound 0.02 µM): -5.2%
inhibition (NEK1 (human); compound 0.2 µM): -6.3%
inhibition (HIPK3 (human); compound 0.02 µM): 3.2%
inhibition (HIPK3 (human); compound 0.2 µM): 28%
inhibition (MAPK10 (human); compound 0.02 µM): -6.5%
inhibition (MAPK10 (human); compound 0.2 µM): -4.6%
inhibition (FGFR3 (human); compound 0.02 µM): 5.5%
inhibition (FGFR3 (human); compound 0.2 µM): 51.7%
inhibition (STK4 (human); compound 0.02 µM): -5.1%
inhibition (STK4 (human); compound 0.2 µM): -3.5%
inhibition (EPHA6 (human); compound 0.02 µM): 16.5%
inhibition (EPHA6 (human); compound 0.2 µM): 77.8%
inhibition (CSNK1A1 (human); compound 0.02 µM): -4.6%
inhibition (CSNK1A1 (human); compound 0.2 µM): -2.9%
inhibition (ALK EML4 (human); compound 0.02 µM): -6.5%
inhibition (ALK EML4 (human); compound 0.2 µM): 2.8%
inhibition (CAMK1 (human); compound 0.02 µM): -4.6%
inhibition (CAMK1 (human); compound 0.2 µM): -2.2%
inhibition (PRKD1 (human); compound 0.02 µM): -1.1%
inhibition (PRKD1 (human); compound 0.2 µM): 2.7%
inhibition (PHKG2 (human); compound 0.02 µM): -3.1%
inhibition (PHKG2 (human); compound 0.2 µM): -2.3%
inhibition (CIT (human); compound 0.02 µM): -4.9%
inhibition (CIT (human); compound 0.2 µM): -2.3%
inhibition (SRPK3 (human); compound 0.02 µM): -0.5%
inhibition (SRPK3 (human); compound 0.2 µM): 7.9%
inhibition (PHKG1 (human); compound 0.02 µM): -3.6%
inhibition (PHKG1 (human); compound 0.2 µM): -2%
inhibition (FER (human); compound 0.02 µM): -1.8%
inhibition (FER (human); compound 0.2 µM): 13.2%
inhibition (RPS6KB2 (human); compound 0.02 µM): 6.3%
inhibition (RPS6KB2 (human); compound 0.2 µM): 5.5%
inhibition (PGK1 (human); compound 0.02 µM): -6.2%
inhibition (PGK1 (human); compound 0.2 µM): 1.9%
inhibition (MAP4K4 (human); compound 0.02 µM): -4.1%
inhibition (MAP4K4 (human); compound 0.2 µM): 6%
inhibition (PRKD2 (human); compound 0.02 µM): -1.2%
inhibition (PRKD2 (human); compound 0.2 µM): 0%
inhibition (SIK1 (human); compound 0.02 µM): -3.4%
inhibition (SIK1 (human); compound 0.2 µM): 7.3%
inhibition (BMX (human); compound 0.02 µM): 0.1%
inhibition (BMX (human); compound 0.2 µM): 10.4%
inhibition (NUAK2 (human); compound 0.02 µM): -6%
inhibition (NUAK2 (human); compound 0.2 µM): 2.5%

CCN(CC)CCNC(=O)c1c(C)[nH]c(/C=C2\C(=O)Nc3ccc(F)cc32)c1C
inhibition (MST1R (human); compound 0.2 µM): 6.4%
inhibition (MST1R (human); compound 4.0 µM): 48.8%
inhibition (PLK3 (human); compound 0.2 µM): 0.9%
inhibition (PLK3 (human); compound 4.0 µM): 0.1%
inhibition (PAK6 (human); compound 0.2 µM): 6%
inhibition (PAK6 (human); compound 4.0 µM): 22.2%
inhibition (PIM2 (human); compound 0.2 µM): 2.5%
inhibition (PIM2 (human); compound 4.0 µM): 12.1%
inhibition (GSK3B (human); compound 0.2 µM): 1.1%
inhibition (GSK3B (human); compound 4.0 µM): 23.7%
inhibition (FGR (human); compound 0.2 µM): 63.4%
inhibition (SRPK2 (human); compound 0.2 µM): -0.5%
inhibition (SRPK2 (human); compound 4.0 µM): 21.1%
inhibition (RPS6KA6 KD1 KD2 (human); compound 0.2 µM): 80.7%
inhibition (RPS6KA6 KD1 KD2 (human); compound 4.0 µM): 97.8%
inhibition (LTK (human); compound 0.2 µM): 69%
inhibition (PRKAA2 (human); compound 0.2 µM): 82.6%
inhibition (PRKAA2 (human); compound 4.0 µM): 100%
inhibition (NEK1 (human); compound 0.2 µM): -2.4%
inhibition (NEK1 (human); compound 4.0 µM): -8.5%
inhibition (MAPK10 (human); compound 0.2 µM): -2.3%
inhibition (FGFR3 (human); compound 0.2 µM): 75%
inhibition (FGFR3 (human); compound 4.0 µM): 98.4%
inhibition (STK4 (human); compound 0.2 µM): 92.8%
inhibition (STK4 (human); compound 4.0 µM): 103%
inhibition (EPHA6 (human); compound 0.2 µM): 43.4%
inhibition (EPHA6 (human); compound 4.0 µM): 92.7%
inhibition (ALK EML4 (human); compound 0.2 µM): 70.5%
inhibition (ALK EML4 (human); compound 4.0 µM): 100%
inhibition (CAMK1 (human); compound 0.2 µM): 7.3%
inhibition (CAMK1 (human); compound 4.0 µM): 61.2%
inhibition (PRKD1 (human); compound 0.2 µM): 73.6%
inhibition (PRKD1 (human); compound 4.0 µM): 99%
inhibition (PHKG2 (human); compound 0.2 µM): 85.2%
inhibition (PHKG2 (human); compound 4.0 µM): 99%
inhibition (CIT (human); compound 0.2 µM): 2.2%
inhibition (CIT (human); compound 4.0 µM): 29.1%
inhibition (SRPK3 (human); compound 0.2 µM): 1.1%
inhibition (SRPK3 (human); compound 4.0 µM): 5.1%
inhibition (PHKG1 (human); compound 0.2 µM): 91.8%
inhibition (PHKG1 (human); compound 4.0 µM): 96.9%
inhibition (FER (human); compound 0.2 µM): 78.8%
inhibition (FER (human); compound 4.0 µM): 102%
inhibition (RPS6KB2 (human); compound 0.2 µM): 15.7%
inhibition (RPS6KB2 (human); compound 4.0 µM): 50%
inhibition (PGK1 (human); compound 0.2 µM): 12.5%
inhibition (PGK1 (human); compound 4.0 µM): 74.1%
inhibition (MAP4K4 (human); compound 4.0 µM): 101%
Ki (PRKD2 (human)): 52 nM
inhibition (PRKD2 (human); compound 0.2 µM): 65.6%
inhibition (PRKD2 (human); compound 4.0 µM): 97.9%
inhibition (SIK1 (human); compound 0.2 µM): 15%
inhibition (SIK1 (human); compound 4.0 µM): 76.1%
inhibition (BMX (human); compound 0.2 µM): -0.5%
inhibition (BMX (human); compound 4.0 µM): 22.4%
inhibition (NUAK2 (human); compound 0.2 µM): 55.7%
inhibition (NUAK2 (human); compound 4.0 µM): 95.3%
